Reference: ChEMBL document CHEMBL4396932, “Rasagiline derivatives combined with histamine H3 receptor properties” (Bioorg Med Chem Lett, 2019)

Legend:
[1] = target: T1, Amine oxidase [flavin-containing] B (Rattus norvegicus, UniProt P19643); assay: Inhibition of rat brain MAO-B using [14C]-phenylethylamine as substrate preincubated for 60 mins followed by substrate addition and measured after 20 mins by liquid scintillation counting method
T1 sequence (P19643 whole entry): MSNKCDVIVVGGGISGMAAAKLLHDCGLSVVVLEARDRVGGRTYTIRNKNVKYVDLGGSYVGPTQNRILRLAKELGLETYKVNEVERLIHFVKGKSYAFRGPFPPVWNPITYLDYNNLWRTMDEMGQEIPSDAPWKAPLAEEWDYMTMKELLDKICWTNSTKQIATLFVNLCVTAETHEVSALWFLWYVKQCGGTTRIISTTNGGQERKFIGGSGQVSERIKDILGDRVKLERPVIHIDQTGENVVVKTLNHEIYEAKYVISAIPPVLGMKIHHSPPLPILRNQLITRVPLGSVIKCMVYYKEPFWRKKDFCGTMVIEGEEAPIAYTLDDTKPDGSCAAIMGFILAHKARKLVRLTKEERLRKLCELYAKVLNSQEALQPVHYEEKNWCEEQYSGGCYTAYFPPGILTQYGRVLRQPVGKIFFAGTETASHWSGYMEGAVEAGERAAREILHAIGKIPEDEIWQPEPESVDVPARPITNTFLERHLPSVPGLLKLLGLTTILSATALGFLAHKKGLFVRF

[2] = Cytotoxicity against human SH-SY5Y cells assessed as cell viability at 1 mM and measured after 24 hrs by resazurin dye based fluorescence assay relative to control; conditions: read-out: Activity
Histamine H3 receptor = Histamine H3 receptor (Homo sapiens, UniProt Q9Y5N1); assay: Displacement of [3H] N-alpha methylhistamine from human recombinant H3 receptor expressed in HEK293 cells incubated for 90 min; type: cell-based
[3] = target: T2, Amine oxidase [flavin-containing] A (Homo sapiens, UniProt P21397); assay: Inhibition of human recombinant MAO-A using kynuramine as substrate by discontinuous fluorimetric analysis
T2 sequence (P21397 whole entry): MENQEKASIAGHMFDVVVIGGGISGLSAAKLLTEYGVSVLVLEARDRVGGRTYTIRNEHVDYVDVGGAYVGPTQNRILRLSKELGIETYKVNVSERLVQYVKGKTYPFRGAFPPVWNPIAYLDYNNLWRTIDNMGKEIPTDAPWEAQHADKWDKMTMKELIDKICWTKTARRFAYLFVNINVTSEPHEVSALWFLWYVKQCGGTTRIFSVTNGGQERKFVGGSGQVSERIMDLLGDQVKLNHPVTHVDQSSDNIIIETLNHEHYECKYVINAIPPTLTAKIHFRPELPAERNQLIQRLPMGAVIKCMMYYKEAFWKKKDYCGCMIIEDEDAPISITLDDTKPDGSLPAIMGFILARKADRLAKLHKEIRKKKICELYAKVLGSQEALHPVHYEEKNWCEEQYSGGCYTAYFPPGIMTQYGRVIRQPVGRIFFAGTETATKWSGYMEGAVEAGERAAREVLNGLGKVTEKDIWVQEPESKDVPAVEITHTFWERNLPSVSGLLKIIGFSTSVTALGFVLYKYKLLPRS

[4] = target: T3, Amine oxidase [flavin-containing] B (Homo sapiens, UniProt P27338); assay: Inhibition of human recombinant MAO-B using kynuramine as substrate by discontinuous fluorimetric analysis
T3 sequence (P27338 whole entry): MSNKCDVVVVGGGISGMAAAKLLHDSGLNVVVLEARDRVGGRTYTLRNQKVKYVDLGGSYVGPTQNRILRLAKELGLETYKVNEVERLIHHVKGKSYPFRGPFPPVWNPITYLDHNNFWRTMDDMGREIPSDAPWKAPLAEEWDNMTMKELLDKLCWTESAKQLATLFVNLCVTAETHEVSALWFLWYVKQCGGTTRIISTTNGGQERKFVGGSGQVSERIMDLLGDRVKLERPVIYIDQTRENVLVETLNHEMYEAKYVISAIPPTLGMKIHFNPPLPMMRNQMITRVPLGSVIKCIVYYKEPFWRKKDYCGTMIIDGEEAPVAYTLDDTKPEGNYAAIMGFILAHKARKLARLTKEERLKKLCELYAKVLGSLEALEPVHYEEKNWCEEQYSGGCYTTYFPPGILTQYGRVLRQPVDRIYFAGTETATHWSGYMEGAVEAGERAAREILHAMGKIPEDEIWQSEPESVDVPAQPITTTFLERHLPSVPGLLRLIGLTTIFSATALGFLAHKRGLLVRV

Homo sapiens [5] = species: Homo sapiens; assay: Selectivity index, ratio of IC50 for human recombinant MAO-A to IC50 for human recombinant MAO-B using kynuramine as substrate
[6] = target: T2, Amine oxidase [flavin-containing] A; assay: Inhibition of human recombinant MAO-A using kynuramine as substrate preincubated for 30 mins followed by substrate addition by discontinuous fluorimetric analysis
[7] = Cytotoxicity against human SH-SY5Y cells assessed as cell viability at 10 uM measured after 24 hrs by resazurin dye based fluorescence assay relative to control; conditions: read-out: Activity
[8] = Cytotoxicity against human SH-SY5Y cells assessed as cell viability at 1 uM measured after 24 hrs by resazurin dye based fluorescence assay relative to control; conditions: read-out: Activity
Histamine H1 receptor = Histamine H1 receptor (Homo sapiens, UniProt P35367); assay: Displacement of [3H] pyrilamine from human H1 histamine receptor
Histamine H4 receptor = Histamine H4 receptor (Homo sapiens, UniProt Q9H3N8); assay: Displacement of [3H] histamine from human H4 histamine receptor
D(2) dopamine receptor = D(2) dopamine receptor (Homo sapiens, UniProt P14416); assay: Displacement of [3H] spiperone from human D2 dopamine receptor
D(3) dopamine receptor = D(3) dopamine receptor (Homo sapiens, UniProt P35462); assay: Displacement of [3H] spiperone from human D3 dopamine receptor
[9] = target: T2, Amine oxidase [flavin-containing] A; assay: Inhibition of human recombinant MAO-A using kynuramine as substrate preincubated for 60 mins followed by substrate addition by discontinuous fluorimetric analysis
[10] = target: T3, Amine oxidase [flavin-containing] B; assay: Inhibition of human recombinant MAO-B using kynuramine as substrate preincubated for 30 mins followed by substrate addition by discontinuous fluorimetric analysis
[11] = target: T3, Amine oxidase [flavin-containing] B; assay: Inhibition of human recombinant MAO-B using kynuramine as substrate preincubated for 60 mins followed by substrate addition by discontinuous fluorimetric analysis
Homo sapiens [12] = species: Homo sapiens; assay: Selectivity index, ratio of IC50 for human recombinant MAO-A using kynuramine as substrate preincubated for 30 mins followed by substrate addition to IC50 for human recombinant MAO-B using kynuramine as substrate preincubated for 30 mins followed by substrate addition
Homo sapiens [13] = species: Homo sapiens; assay: Selectivity index, ratio of IC50 for human recombinant MAO-A using kynuramine as substrate preincubated for 60 mins followed by substrate addition to IC50 for human recombinant MAO-B using kynuramine as substrate preincubated for 60 mins followed by substrate addition
[14] = target: Acetylcholinesterase (Electrophorus electricus) (UniProt O42275); assay: Inhibition of electric eel AChE at 10 uM using acetylthiocholine iodide as substrate preincubated for 30 mins followed by substrate addition and measured every 40 secs for 30 mins by Ellman's method relative to control
[15] = target: Cholinesterase (Equus caballus) (UniProt P81908); assay: Inhibition of equine serum BuChE at 10 uM using acetylthiocholine iodide as substrate preincubated for 30 mins followed by substrate addition and measured every 40 secs for 30 mins by Ellman's method relative to control
[16] = target: T3, Amine oxidase [flavin-containing] B; assay: Irreversible inhibition of human recombinant MAO-B assessed as reduction in enzyme activity at 10 times IC50 using kynuramine as substrate preincubated with compound followed by substrate addition by discontinuous fluorimetric analysis; conditions: TDE = time-dependent effect

Histamine H3 receptor, sequence (Q9Y5N1 whole entry): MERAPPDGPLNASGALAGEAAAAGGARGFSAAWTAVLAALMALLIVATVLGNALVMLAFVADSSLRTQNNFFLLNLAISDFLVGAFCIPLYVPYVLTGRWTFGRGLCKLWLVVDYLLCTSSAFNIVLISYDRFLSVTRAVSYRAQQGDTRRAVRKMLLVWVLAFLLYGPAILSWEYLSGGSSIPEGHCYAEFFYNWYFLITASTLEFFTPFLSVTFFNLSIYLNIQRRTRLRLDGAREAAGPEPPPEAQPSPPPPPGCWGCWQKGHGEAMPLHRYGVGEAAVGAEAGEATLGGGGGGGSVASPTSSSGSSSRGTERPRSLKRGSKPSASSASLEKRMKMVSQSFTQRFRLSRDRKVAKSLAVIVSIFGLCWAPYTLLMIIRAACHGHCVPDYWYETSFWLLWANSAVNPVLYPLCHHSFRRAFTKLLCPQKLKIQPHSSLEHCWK
Cholinesterase (Equus caballus), sequence (P81908 whole entry): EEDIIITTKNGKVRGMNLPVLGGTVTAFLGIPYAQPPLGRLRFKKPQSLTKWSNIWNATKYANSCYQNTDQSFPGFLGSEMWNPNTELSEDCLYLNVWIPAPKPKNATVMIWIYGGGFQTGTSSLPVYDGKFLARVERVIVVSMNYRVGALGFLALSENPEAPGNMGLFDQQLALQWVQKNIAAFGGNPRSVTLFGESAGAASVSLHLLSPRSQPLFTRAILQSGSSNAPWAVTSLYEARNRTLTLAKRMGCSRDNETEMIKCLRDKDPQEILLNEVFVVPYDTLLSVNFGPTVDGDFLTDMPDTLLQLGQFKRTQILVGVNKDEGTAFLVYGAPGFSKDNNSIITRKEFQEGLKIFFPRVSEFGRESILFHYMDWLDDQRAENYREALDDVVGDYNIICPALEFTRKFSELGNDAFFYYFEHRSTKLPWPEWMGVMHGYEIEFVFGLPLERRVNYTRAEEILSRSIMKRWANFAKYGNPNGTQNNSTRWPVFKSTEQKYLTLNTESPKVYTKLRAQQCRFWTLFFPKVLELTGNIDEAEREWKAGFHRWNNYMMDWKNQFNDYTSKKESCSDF
Acetylcholinesterase (Electrophorus electricus), sequence (O42275 24-633 limits assumed): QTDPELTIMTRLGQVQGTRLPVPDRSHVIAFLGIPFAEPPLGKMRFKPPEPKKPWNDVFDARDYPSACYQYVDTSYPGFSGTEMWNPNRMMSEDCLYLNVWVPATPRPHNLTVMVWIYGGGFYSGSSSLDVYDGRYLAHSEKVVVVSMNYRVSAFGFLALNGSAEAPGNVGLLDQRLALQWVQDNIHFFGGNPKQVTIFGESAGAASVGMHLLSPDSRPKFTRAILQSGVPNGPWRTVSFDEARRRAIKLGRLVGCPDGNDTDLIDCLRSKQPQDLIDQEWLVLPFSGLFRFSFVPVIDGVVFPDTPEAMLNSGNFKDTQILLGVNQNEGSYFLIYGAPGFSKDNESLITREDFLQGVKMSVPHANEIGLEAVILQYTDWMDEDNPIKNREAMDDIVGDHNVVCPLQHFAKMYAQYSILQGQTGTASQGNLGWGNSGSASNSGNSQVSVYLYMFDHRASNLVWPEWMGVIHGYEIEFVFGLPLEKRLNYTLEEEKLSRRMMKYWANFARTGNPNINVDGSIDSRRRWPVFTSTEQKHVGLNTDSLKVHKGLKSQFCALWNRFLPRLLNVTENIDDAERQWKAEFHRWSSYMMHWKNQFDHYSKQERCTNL
Histamine H4 receptor, sequence (Q9H3N8 whole entry): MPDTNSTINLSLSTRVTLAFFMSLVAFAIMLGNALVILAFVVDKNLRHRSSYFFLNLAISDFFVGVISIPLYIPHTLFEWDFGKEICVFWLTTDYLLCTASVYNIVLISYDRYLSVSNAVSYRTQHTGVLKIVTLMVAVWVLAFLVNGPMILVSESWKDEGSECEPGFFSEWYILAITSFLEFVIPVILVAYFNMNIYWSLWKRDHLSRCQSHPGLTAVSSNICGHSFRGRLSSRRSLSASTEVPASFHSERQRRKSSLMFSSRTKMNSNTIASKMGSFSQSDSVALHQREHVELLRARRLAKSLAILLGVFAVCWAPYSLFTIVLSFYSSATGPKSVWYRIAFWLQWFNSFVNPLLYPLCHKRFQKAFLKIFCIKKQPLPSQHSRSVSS
D(3) dopamine receptor, sequence (P35462 whole entry): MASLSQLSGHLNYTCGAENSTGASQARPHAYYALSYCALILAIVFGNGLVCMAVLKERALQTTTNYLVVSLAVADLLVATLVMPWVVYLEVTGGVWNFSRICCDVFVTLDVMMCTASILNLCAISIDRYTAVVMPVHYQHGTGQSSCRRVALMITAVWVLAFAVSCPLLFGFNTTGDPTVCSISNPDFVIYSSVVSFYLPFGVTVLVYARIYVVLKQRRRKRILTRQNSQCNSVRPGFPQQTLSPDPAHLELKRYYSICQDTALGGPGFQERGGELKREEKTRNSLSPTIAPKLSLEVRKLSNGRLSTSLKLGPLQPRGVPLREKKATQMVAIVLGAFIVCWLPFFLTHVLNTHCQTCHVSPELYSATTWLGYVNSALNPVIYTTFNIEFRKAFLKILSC
D(2) dopamine receptor, sequence (P14416 whole entry): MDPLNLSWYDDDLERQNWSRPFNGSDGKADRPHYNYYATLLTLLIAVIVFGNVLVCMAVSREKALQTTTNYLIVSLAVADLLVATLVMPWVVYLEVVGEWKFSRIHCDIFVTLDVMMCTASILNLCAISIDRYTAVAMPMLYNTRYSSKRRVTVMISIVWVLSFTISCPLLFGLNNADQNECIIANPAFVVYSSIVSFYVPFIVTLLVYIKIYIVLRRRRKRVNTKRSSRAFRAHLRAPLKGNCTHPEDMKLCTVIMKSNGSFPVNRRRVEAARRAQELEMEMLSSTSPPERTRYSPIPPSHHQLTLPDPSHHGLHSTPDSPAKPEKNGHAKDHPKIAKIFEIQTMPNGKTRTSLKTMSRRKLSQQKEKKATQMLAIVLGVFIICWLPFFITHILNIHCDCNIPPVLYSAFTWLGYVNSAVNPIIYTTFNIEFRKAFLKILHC
Histamine H1 receptor, sequence (P35367 whole entry): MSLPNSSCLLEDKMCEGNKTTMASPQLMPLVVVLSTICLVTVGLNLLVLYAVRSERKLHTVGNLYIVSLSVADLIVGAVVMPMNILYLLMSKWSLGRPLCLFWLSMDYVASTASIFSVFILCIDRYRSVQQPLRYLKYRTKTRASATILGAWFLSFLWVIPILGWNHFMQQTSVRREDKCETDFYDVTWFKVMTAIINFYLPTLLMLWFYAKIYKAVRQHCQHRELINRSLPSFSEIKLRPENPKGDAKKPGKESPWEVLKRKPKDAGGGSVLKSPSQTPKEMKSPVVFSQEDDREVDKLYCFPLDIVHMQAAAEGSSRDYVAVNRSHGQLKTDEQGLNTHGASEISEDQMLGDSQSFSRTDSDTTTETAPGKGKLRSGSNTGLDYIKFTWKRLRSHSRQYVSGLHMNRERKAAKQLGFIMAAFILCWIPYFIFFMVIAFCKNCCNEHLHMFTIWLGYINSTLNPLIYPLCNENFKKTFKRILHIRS

Compound | Ki (Histamine H3 receptor; read-out: Ki) [µM] | Ki (Histamine H3 receptor; read-out: pKi (converted)) [µM] | IC50 [3] [µM] | IC50 [4] [µM] | Ratio IC50 (Homo sapiens [5]) | viability at 24 h, 10 µM [7] [%] | viability at 24 h, 1 µM [8] [%] | IC50 [9] [µM] | IC50 [11] [µM] | Ratio IC50 (Homo sapiens [13]) | inhibition [14] [%] | inhibition [15] [%] | further results
C#CCN[C@@H]1CCc2ccc(OC(=O)N(C)CC)cc21 [LADOSTIGIL] | – | – | – | – | – | – | – | – | – | – | – | – | IC50 [1]: > 1000 µM
C[n+]1ccc(-c2ccccc2)cc1 | – | – | – | – | – | – | – | – | – | – | – | – | viability at 24 h, 1000 µM [2]: 1.8%
C#CCNC1CCc2cc(OCCCN3CCCCC3)ccc21 (centres undefined) | 0.0026 | < 0.01 | > 100 | 0.991 | > 100 | 95.6 | 89.7 | > 10 | 0.256 | > 39 | 57 | 32 | IC50 [6]: > 100 µM; Ki (Histamine H1 receptor): > 10 µM; Ki (Histamine H4 receptor): > 100 µM; Ki (D(2) dopamine receptor): > 10 µM; Ki (D(3) dopamine receptor): > 10 µM; IC50 [10]: 1.05 µM; Ratio IC50 (Homo sapiens [12]): > 95; inhibition (INH) [16]: Tde
C#CCNC1CCc2ccc(OCCCN3CCCCC3)cc21 (centres undefined) | 0.0067 | < 0.01 | > 100 | 7.92 | > 13 | 100 | 84 | > 50 | 10.5 | > 4.8 | 47 | 47 | –
